Results from US7183314B1, “Compound for treatment of anxiety and methods of preparation and use thereof” (Naturon Limited, priority 2000, dated 2007).

Columns and labels:
Male ICR mice [1] = assay: Locomotor activity test; type: in vivo; conditions: oral; for Locomotor Activity Score: 5 minute period
Experimental: (§1) Male ICR mice weighing 18–23 g were used. They were housed in groups of four or five with free access to food and water and maintained on a 11 hour light: 13 hour dark cycle. All of the experimental groups, except acute lethal activity test (10 mice of either sex) have 16 animals per group.
(§2) For the chronic test, mice received 5 days pretreatment before the test. Flumazenil (Ro15-1788) was administrated intraperitoneally (IP) 15 minutes before testing in an injection volume of 12.5 ml/kg.
A ZIL-2 apparatus (Beijing Institute of Materia Medica) with dimensions 60×60×12 cm was used. It consists of four circular plastic boxes with diameter 25 cm and each has 6 equally distributed infrared photocells. The locomotor activity was counted automatically during a 5 minute period of test. An increase in the number of transitions reflects an increased locomotor activity.

Male ICR mice [2] = assay: Holeboard test; type: in vivo; conditions: oral; for Head-dip Number / Head-dip Time: 5 minutes
Experimental: as §1, §2
The holeboard was a wooden box, 60×60×30 cm, with four holes of 3 cm diameter equally spaced in the floor. Mice were placed in the center of the holeboard and the number of head-dips, the time spent head-dipping were counted during 5 minutes (File, S. E., and Pellow, S., Br J Pharmacol 86: 729–735, 1985). Mice were allocated to different test groups randomly, and tested in an randomized order of drug treatment between 8 A.M. and 12 P.M. in a room lit by dim light. After each trial, the floor of the apparatus was wiped and dried thoroughly with tissue to remove traces of the previous path. An increase in the number and time spent head-dipping in this test are indicative of a greater exploratory activity. Conversely, a decrease in any of these parameters compared to controls is symptomatic of sedated behavior (Nolan, N. A., and Parkes, M. W., Psychopharmacol 29: 277–288, 1973; File, S. E., and Wardill, A. G., Psychopharmacol 44: 53–59, 1975; File, S. E., and Pellow, S., Psychopharmacol 88:1–11, 1986).

Male ICR mice [3] = assay: Elevated plus-maze; type: in vivo; conditions: for Total (total number of arm entries): 5 minute test
Experimental: as §1, §2
The elevated plus-maze was made of wood and consisted of two open arms (25×5 cm) and two opposite arms enclosed by 20 cm high walls. The arms extended from a central platform (5×5 cm). The plus-maze was elevated to a height of 40 cm. The maze was put inside a box 30×30×50 cm. […] The number of entries into and the time spent on the open and closed arms were counted. The total number of arm entries provided a measure of general activity, and anxiety reduces the number of such entries. At the end of the test, the number of entries into open arms was expressed as a percentage of the total number of arm entries. The time spent on the open arms was also expressed as a percentage of time spent on both the open and closed arms. Testing took place between 8 A.M. and 12 P.M. Mice were randomly allocated to different test groups, and tested in a randomized order of drug treatment in a room lit by dim light. After each trial, the floor of the apparatus was wiped and dried thoroughly with tissue to remove traces of the previous path.

Male ICR mice [4] = assay: Horizontal wire test; type: in vivo; conditions: up to 30 mg/kg, 1 hour after oral administration, FIG. 5
Experimental: as §1, §2
Mice were lifted by the tail and allowed to grasp a horizontally strung wire (1 mm diameter, 15 cm long and placed 20 cm above the table) with their forepaws and released (Bonetti, E. P., et al., Psychopharmacol 78: 8–18, 1982). […] After two trials performed at 5 minute intervals, the test took place. A myorelaxant drug impairs the capacity of the mice to grasp the wire. Such muscle relaxation is commonly associated with sedation.

[5] = Acute lethal activity test; conditions: both sexes, ICR, mouse, in vivo; in mice
Experimental: as §1

[6] = tested on: BZD-S of the GABAA-receptor; conditions: as variously reported; cited from earlier work
[7] = Acute, 1 hour before test, 1 mg/kg
[8] = Chronic (5 days pretreatment), 1 mg/kg
[9] = Acute, 1 hour before test, 3.75 mg/kg
[10] = Acute, 1 hour before test, 7.5 mg/kg
[11] = Acute, 1 hour before test, 15 mg/kg
[12] = Acute, 1 hour before test, 30 mg/kg
[13] = Chronic (5 days pretreatment), 3.75 mg/kg
[14] = Chronic (5 days pretreatment), 7.5 mg/kg
[15] = Chronic (5 days pretreatment), 15 mg/kg
[16] = Chronic (5 days pretreatment), 30 mg/kg

CN1C(=O)CN=C(c2ccccc2)c2cc(Cl)ccc21 [diazepam, reference compound]
Locomotor Activity Score (Male ICR mice [1]; [7]): 225.29 ± 15.80 | Locomotor Activity Score (Male ICR mice [1]; [8]): 195.25 ± 13.03 | Head-dip Number (Male ICR mice [2]; [7]): 28.88 ± 2.16 | Head-dip Time (Male ICR mice [2]; [7]): 37.00 ± 0.79 | Head-dip Number (Male ICR mice [2]; [8]): 31.94 ± 3.57 | Head-dip Time (Male ICR mice [2]; [8]): 36.50 ± 3.59 | Total (total number of arm entries) (Male ICR mice [3]; Acute, oral, 1 hour before test, 1 mg/kg): 45.13 ± 2.31 | Total (total number of arm entries) (Male ICR mice [3]; Chronic (5 days pretreatment), oral, 1 mg/kg): 29.38 ± 2.67

COc1c(O)cc(O)c2c(=O)cc(-c3ccccc3)oc12 [wogonin]
Locomotor Activity Score (Male ICR mice [1]; [9]): 189.44 ± 6.54 | Locomotor Activity Score (Male ICR mice [1]; [10]): 205.63 ± 13.11 | Locomotor Activity Score (Male ICR mice [1]; [11]): 207.38 ± 10.12 | Locomotor Activity Score (Male ICR mice [1]; [12]): 193.50 ± 6.39 | Locomotor Activity Score (Male ICR mice [1]; [13]): 149.75 ± 6.55 | Locomotor Activity Score (Male ICR mice [1]; [14]): 170.56 ± 12.00 | Locomotor Activity Score (Male ICR mice [1]; [15]): 172.75 ± 6.25 | Locomotor Activity Score (Male ICR mice [1]; [16]): 184.56 ± 7.88 | Sedative effects (change in motor activity) (Male ICR mice [1]; up to 30 mg/kg body weight, mice): did not induce any sedative effects | Head-dip Number (Male ICR mice [2]; [9]): 23.88 ± 1.08 | Head-dip Time (Male ICR mice [2]; [9]): 27.00 ± 1.10 | Head-dip Number (Male ICR mice [2]; [10]): 31.06 ± 1.88 | Head-dip Time (Male ICR mice [2]; [10]): 36.38 ± 1.93 | Head-dip Number (Male ICR mice [2]; [11]): 37.00 ± 1.94 | Head-dip Time (Male ICR mice [2]; [11]): 42.25 ± 2.54 | Head-dip Number (Male ICR mice [2]; [12]): 42.75 ± 3.58 | Head-dip Time (Male ICR mice [2]; [12]): 48.19 ± 3.92 | Head-dip Number (Male ICR mice [2]; [13]): 23.88 ± 1.86 | Head-dip Time (Male ICR mice [2]; [13]): 26.88 ± 1.95 | Head-dip Number (Male ICR mice [2]; [14]): 32.31 ± 1.80 | Head-dip Time (Male ICR mice [2]; [14]): 38.00 ± 0.79 | Head-dip Number (Male ICR mice [2]; [15]): 32.81 ± 2.27 | Head-dip Time (Male ICR mice [2]; [15]): 37.38 ± 2.32 | Head-dip Number (Male ICR mice [2]; [16]): 30.13 ± 1.59 | Head-dip Time (Male ICR mice [2]; [16]): 35.88 ± 1.81 | Sedative effect (holeboard) (Male ICR mice [2]; up to 30 mg/kg, mice): did not induce a significant sedative effect | Anxiolytic effects: open arm entries (acute), % time spent in open arms (acute), % open arm entries (chronic) (Male ICR mice [3]; 7.5, 15 or 30 mg/kg, oral, mice, FIG. 3): significant anxiolytic effects | Total (total number of arm entries) (Male ICR mice [3]; Acute, oral, 1 hour before test, 3.75 mg/kg): 34.56 ± 0.97 | Total (total number of arm entries) (Male ICR mice [3]; Acute, oral, 1 hour before test, 7.5 mg/kg): 45.56 ± 1.71 | Total (total number of arm entries) (Male ICR mice [3]; Acute, oral, 1 hour before test, 15 mg/kg): 43.50 ± 1.90 | Total (total number of arm entries) (Male ICR mice [3]; Acute, oral, 1 hour before test, 30 mg/kg): 47.00 ± 1.93 | Total (total number of arm entries) (Male ICR mice [3]; Chronic (5 days pretreatment), oral, 3.75 mg/kg): 27.56 ± 1.90 | Total (total number of arm entries) (Male ICR mice [3]; Chronic (5 days pretreatment), oral, 7.5 mg/kg): 31.75 ± 2.07 | Total (total number of arm entries) (Male ICR mice [3]; Chronic (5 days pretreatment), oral, 15 mg/kg): 31.56 ± 2.13 | Total (total number of arm entries) (Male ICR mice [3]; Chronic (5 days pretreatment), oral, 30 mg/kg): 31.31 ± 1.77 | Anxiolytic effect of wogonin after treatment with Flumazenil Ro15-1788 (Male ICR mice [3]; Flumazenil Ro15-1788 2.5 mg/kg IP 15 minutes before testing, mice, FIG. 4): completely abolished | Myorelaxant effects (Male ICR mice [4]): devoid of myorelaxant effects | LD50 [5]: ~4000 mg/kg | Binding affinity to the BZD-S of the GABAA-receptor [6]: weak or moderate
